Results as given in patent publication US20170223995A1, “Sweetener Blend Compositions” (The Coca-Cola Company, priority 2011, published 2017).

Experiment: Multi-sip and swallow taste test by a trained taste tester
Assay type: in vivo
Description: Multi-Sip and Swallow Test Method
A sip (approximately 2.0-5.0 mL) of a sample was swallowed by a trained taste tester. After allowing a 15-25 second interval to pass, a second sip of the sample is tasted and swallowed. This process is repeated as needed to determine the taste properties. The taste properties are then recorded by the trained taste tester. Preferably no more than ten samples are tested per day to avoid taste fatigue. Each sample was taken at least 1.5 hours following eating or drinking.

[1] = 500 ppm in carbon-treated water
[2] = as restated in the Discussion, out of highest five
[3] = 100,000 ppm in carbon-treated water

Compound	bitterness intensity [1]	sugar-like tasting quality [1]	sweetness intensity [1]	sweetness linger [1]	sweetness linger [2]	sweetness (in words, compared with rebaudioside A) (Discussion)	sugar-like tasting quality (in words, comparison) (text remarks, comparison with rebaudioside A)	sweetness onset [1]	bitterness intensity [3]	sugar-like tasting quality [3]	sweetness intensity [3]	sweetness linger [3]
C=C1C[C@@]23CC[C@H]4[C@@](C)(CCC[C@@]4(C)C(=O)O[C@@H]4O[C@H](CO)[C@@H](O)[C@H](O)[C@H]4O)[C@@H]2CC[C@]1(O[C@@H]1O[C@H](CO)[C@@H](O)[C@H](O[C@@H]2O[C@H](CO)[C@@H](O)[C@H](O)[C@H]2O)[C@H]1O[C@@H]1O[C@H](CO)[C@@H](O)[C@H](O)[C@H]1O)C3 [rebaudioside A]	4 out of 5	0 out of 5	5 out of 10	5 out of 5	5	–	–	–	–	–	–	–
rebaudioside B	0 out of 5	3 out of 5	2 out of 10	3 out of 5	3	–	–	–	–	–	–	–
C=C1C[C@@]23CC[C@H]4[C@@](C)(CCC[C@@]4(C)C(=O)O[C@@H]4O[C@H](CO)[C@@H](O)[C@H](O)[C@H]4O)[C@@H]2CC[C@]1(O[C@@H]1O[C@H](CO)[C@@H](O)[C@H](O)[C@H]1O[C@@H]1O[C@H](CO)[C@@H](O)[C@H](O)[C@H]1O)C3 [stevioside]	5 out of 5	0 out of 5	5 out of 10	5 out of 5	–	–	–	–	–	–	–	–
C=C1C[C@@]23CC[C@H]4[C@@](C)(CCC[C@@]4(C)C(=O)O[C@@H]4O[C@H](CO)[C@@H](O)[C@H](O)[C@H]4O[C@@H]4O[C@H](CO)[C@@H](O)[C@H](O)[C@H]4O)[C@@H]2CC[C@]1(O[C@@H]1O[C@H](CO)[C@@H](O)[C@H](O[C@@H]2O[C@H](CO)[C@@H](O)[C@H](O)[C@H]2O)[C@H]1O[C@@H]1O[C@H](CO)[C@@H](O)[C@H](O)[C@H]1O)C3 [rebaudioside D]	–	–	–	–	5	less sweetness	slightly more sugar-like taste quality	–	–	–	–	–
C=C1C[C@@]23CC[C@H]4[C@@](C)(CCC[C@@]4(C)C(=O)O)[C@@H]2CC[C@]1(O[C@@H]1O[C@H](CO)[C@@H](O)[C@H](O)[C@H]1O[C@@H]1O[C@H](CO)[C@@H](O)[C@H](O)[C@H]1O)C3 [steviolbioside]	no bitterness	2 out of 5	5 out of 10	3 out of 5	–	–	–	slow sweetness onset	–	–	–	–
OC[C@H]1O[C@@](CO)(O[C@H]2O[C@H](CO)[C@@H](O)[C@H](O)[C@H]2O)[C@@H](O)[C@@H]1O [sugar]	–	–	–	–	–	–	–	–	0	5	10	0
